Measurements from patent publication US20080009418A1, “Selective Inhibitors” (Alchemia LTD., priority 2004, published 2008).

Columns and labels:
Human Melanocortin (MC4) = molecular target: T1, Human Melanocortin (MC4) (Homo sapiens, UniProt P32245); test: Radioligand binding, human melanocortin MC4 membranes, FlashPlate, [125I]-NDP-αMSH; conditions: compound at 10 μM, [125I]-NDP-αMSH; for A4: inhibition of radioligand binding: FlashPlate
T1 construct: purchased Perkin Elmer Biosignal
How it was run: (§1)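 Cloned human receptor membranes were coated onto FlashPlate wells and incubated with radioligand and compound (added from a 0.5 mM DMSO daughter plate) for 1 hour at room temperature in the dark. Scintillation counting gave percent inhibition, with DMSO defining total and reference ligand defining non-specific binding.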

Human opioid (ORL1) = molecular target: T2, Human opioid (ORL1) (Homo sapiens, UniProt P41146); test: Radioligand binding, human opioid ORL1 membranes, FlashPlate, [125I]-Nociceptin; conditions: compound at 10 μM, [125I]-Nociceptin; for A10: inhibition of radioligand binding: FlashPlate
T2 construct: purchased Perkin Elmer Biosignal
T2 sequence (P41146 whole entry): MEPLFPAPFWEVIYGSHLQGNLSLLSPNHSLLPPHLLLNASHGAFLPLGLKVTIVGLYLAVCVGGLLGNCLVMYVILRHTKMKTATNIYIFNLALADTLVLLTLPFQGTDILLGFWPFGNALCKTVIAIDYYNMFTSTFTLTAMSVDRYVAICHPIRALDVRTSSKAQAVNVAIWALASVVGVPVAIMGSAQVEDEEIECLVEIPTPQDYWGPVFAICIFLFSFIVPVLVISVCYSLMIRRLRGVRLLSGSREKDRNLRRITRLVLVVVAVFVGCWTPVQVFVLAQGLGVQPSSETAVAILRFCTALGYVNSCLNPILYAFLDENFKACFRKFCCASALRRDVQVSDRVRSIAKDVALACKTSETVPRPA
How it was run: as §1

Human melanocortin (MC5) = molecular target: T3, Human melanocortin (MC5) (Homo sapiens, UniProt P33032); test: Radioligand binding, human melanocortin MC5 membranes, FlashPlate, [125I]-NDP-αMSH; conditions: compound at 10 μM, [125I]-NDP-αMSH; for A5: inhibition of radioligand binding: FlashPlate
T3 construct: purchased Perkin Elmer Biosignal
T3 sequence (P33032 whole entry): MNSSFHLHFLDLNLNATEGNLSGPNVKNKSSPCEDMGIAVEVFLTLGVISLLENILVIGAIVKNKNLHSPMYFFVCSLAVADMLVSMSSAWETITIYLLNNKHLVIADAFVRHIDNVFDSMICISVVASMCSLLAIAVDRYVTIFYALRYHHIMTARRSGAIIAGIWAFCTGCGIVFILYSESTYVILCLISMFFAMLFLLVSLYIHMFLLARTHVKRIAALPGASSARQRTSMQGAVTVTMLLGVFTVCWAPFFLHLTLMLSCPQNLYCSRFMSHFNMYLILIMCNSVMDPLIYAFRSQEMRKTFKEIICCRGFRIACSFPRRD
How it was run: as §1

Human δ-opioid (DOP) = molecular target: T4, Human δ-opioid (DOP) (Homo sapiens, UniProt P41143); test: Radioligand binding, human δ-opioid (DOP) membranes, FlashPlate, [3H]-Bremazocine; conditions: compound at 10 μM, [3H]-Bremazocine; for A1: inhibition of radioligand binding: FlashPlate
T4 construct: purchased Perkin Elmer Biosignal
T4 sequence (P41143 whole entry): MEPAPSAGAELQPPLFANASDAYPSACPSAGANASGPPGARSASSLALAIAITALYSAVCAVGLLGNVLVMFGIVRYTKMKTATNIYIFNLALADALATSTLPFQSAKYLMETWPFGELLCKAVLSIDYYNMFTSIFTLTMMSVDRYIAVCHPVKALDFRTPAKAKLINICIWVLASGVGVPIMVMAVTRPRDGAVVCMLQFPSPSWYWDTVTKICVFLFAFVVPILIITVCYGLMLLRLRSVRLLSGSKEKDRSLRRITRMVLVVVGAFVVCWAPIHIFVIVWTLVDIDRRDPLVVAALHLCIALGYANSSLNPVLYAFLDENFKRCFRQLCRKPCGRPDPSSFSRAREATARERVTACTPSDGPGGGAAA
How it was run: as §1

Mouse urotensin (mUR2) = molecular target: T5, Mouse urotensin (mUR2) (Mus musculus, UniProt Q8VIH9); test: Radioligand binding, mouse urotensin mUR2 membranes, FlashPlate, [125I]-Urotensin II; conditions: compound at 10 μM, [125I]-Urotensin II; for A11: inhibition of radioligand binding: FlashPlate
T5 construct: purchased Perkin Elmer Biosignal
T5 sequence (Q8VIH9 1-385): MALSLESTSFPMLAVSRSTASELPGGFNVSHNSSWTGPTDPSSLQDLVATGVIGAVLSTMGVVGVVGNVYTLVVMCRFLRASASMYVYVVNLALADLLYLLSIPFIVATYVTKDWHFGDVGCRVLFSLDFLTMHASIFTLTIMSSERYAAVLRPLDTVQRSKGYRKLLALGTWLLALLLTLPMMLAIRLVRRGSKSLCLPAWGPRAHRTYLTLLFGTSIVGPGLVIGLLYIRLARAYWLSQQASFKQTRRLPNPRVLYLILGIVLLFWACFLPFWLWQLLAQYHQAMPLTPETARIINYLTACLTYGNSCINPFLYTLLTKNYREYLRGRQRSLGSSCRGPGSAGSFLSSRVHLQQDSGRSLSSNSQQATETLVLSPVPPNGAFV
How it was run: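 Cloned mouse urotensin (mUR2) receptor membranes from Perkin Elmer Biosignal were immobilized in FlashPlate microplates using a proprietary coating. Each well got 19.5 μl buffer, then 0.5 μl of DMSO, reference ligand, or compound. Adding 5 μl of [125I]-Urotensin II, diluted to 5× final concentration in binding buffer, started binding. Plates were sealed with TopSeal-A and incubated 1 hour at room temperature in the dark. Wells were counted for 30 seconds each on a TopCount after a 60-second delay, and percentage inhibition was calculated.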

Human neurokinin (NK1) = molecular target: T6, Human neurokinin (NK1) (Homo sapiens, UniProt P25103); test: Radioligand binding, human neurokinin NK1 membranes, filtration, [125I]-Substance P; conditions: compound at 10 μM, [125I]-Substance P; for A8: inhibition of radioligand binding: filtration
T6 construct: purchased Perkin Elmer Biosignal
T6 sequence (P25103 whole entry): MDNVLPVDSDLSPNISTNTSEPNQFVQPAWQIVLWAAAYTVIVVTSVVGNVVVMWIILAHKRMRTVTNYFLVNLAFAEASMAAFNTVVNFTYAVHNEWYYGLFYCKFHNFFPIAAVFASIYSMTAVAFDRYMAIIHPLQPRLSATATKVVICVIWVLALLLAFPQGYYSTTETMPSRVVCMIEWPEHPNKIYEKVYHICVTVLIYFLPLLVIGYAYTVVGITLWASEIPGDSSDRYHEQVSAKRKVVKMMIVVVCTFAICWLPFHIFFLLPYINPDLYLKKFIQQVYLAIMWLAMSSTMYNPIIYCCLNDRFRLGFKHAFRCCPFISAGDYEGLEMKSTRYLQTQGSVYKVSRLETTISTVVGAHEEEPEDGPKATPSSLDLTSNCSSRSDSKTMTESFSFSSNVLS
How it was run: (§2)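 Filtration binding on cloned human receptor membranes (1 Unit/well), [125I]-Substance P for NK1 and [3H]-Diprenorphine for KOP, 1 h at room temperature. Filters PEI-presoaked, washed with cold 50 mM Tris-HCl pH 7.4, counted by scintillation; percent inhibition calculated, reference ligand defining non-specific binding.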

[1] = molecular target: T7, Human neuropeptide Y (NPY-Y1) (Homo sapiens, UniProt P25929); test: Radioligand binding, human neuropeptide Y NPY-Y1 membranes, FlashPlate, [125I]-PYY; conditions: compound at 10 μM, [125I]-PYY; for A9: inhibition of radioligand binding: FlashPlate
T7 construct: purchased Perkin Elmer Biosignal
T7 sequence (P25929 1-384): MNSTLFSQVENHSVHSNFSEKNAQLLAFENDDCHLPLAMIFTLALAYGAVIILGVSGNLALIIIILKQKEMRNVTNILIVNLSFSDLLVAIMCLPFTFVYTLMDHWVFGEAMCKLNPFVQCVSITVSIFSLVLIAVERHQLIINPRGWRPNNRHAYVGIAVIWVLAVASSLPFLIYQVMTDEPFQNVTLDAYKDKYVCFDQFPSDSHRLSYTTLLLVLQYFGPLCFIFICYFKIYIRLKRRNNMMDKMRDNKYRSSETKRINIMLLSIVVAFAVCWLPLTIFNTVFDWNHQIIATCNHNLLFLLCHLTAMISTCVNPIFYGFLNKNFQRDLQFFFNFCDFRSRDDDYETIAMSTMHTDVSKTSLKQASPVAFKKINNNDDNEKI
How it was run: as §1

Human Melanocortin (MC3) = molecular target: T8, Human Melanocortin (MC3) (Homo sapiens, UniProt P41968); test: Radioligand binding, human melanocortin MC3 membranes, FlashPlate, [125I]-NDP-αMSH; conditions: compound at 10 μM, [125I]-NDP-αMSH; for A3: inhibition of radioligand binding: FlashPlate
T8 construct: purchased Perkin Elmer Biosignal
T8 sequence (P41968 whole entry): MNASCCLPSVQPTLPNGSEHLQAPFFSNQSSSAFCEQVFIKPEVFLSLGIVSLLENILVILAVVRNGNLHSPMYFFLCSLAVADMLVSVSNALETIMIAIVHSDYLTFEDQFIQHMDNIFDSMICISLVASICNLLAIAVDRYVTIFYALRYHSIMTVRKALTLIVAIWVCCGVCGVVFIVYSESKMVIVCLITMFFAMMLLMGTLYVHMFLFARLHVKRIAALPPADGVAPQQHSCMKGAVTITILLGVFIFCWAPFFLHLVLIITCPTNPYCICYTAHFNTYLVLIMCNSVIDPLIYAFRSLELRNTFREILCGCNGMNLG
How it was run: as §1

[2] = molecular target: T9, Human melanin-concentrating hormone (MCH1) (Homo sapiens, UniProt Q99705); test: Radioligand binding, human melanin-concentrating hormone MCH1 membranes, FlashPlate, [125I]-S36057; conditions: compound at 10 μM; for A6: inhibition of radioligand binding: [125I]-S36057, FlashPlate
T9 construct: purchased Perkin Elmer Biosignal
T9 sequence (Q99705 whole entry): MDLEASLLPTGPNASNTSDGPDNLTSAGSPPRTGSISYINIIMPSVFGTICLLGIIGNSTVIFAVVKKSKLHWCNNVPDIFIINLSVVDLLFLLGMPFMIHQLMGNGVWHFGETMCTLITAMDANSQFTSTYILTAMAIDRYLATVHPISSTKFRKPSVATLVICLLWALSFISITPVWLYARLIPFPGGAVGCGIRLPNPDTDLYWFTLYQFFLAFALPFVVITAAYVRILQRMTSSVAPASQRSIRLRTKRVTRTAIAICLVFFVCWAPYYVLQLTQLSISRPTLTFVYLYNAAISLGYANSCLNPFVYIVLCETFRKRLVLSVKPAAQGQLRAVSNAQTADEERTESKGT
How it was run: as §1

Human κ-Opioid (KOP) = molecular target: T10, Human κ-Opioid (KOP) (Homo sapiens, UniProt P41145); test: Radioligand binding, human κ-opioid (KOP) membranes, filtration, [3H]-Diprenorphine; conditions: compound at 10 μM, [3H]-Diprenorphine; for A2: inhibition of radioligand binding: filtration
T10 construct: purchased Perkin Elmer Biosignal
T10 sequence (P41145 whole entry): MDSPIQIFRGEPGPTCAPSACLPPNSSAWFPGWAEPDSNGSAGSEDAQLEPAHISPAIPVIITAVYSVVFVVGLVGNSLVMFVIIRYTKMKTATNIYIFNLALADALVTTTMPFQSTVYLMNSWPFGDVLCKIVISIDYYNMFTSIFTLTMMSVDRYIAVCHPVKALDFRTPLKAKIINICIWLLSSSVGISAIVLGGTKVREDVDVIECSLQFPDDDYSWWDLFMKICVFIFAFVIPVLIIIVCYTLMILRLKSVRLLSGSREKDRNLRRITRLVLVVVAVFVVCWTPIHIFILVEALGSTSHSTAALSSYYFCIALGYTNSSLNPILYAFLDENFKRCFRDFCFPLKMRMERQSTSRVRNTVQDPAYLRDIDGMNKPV
How it was run: as §2

Human μ-opioid (MOP) = molecular target: T11, Human μ-opioid (MOP) (Homo sapiens, UniProt P35372); test: Radioligand binding, human μ-opioid (MOP) membranes, FlashPlate, [3H]-Naloxone; conditions: compound at 10 μM, [3H]-Naloxone; for A7: inhibition of radioligand binding: FlashPlate
T11 construct: purchased Perkin Elmer Biosignal
T11 sequence (P35372 whole entry): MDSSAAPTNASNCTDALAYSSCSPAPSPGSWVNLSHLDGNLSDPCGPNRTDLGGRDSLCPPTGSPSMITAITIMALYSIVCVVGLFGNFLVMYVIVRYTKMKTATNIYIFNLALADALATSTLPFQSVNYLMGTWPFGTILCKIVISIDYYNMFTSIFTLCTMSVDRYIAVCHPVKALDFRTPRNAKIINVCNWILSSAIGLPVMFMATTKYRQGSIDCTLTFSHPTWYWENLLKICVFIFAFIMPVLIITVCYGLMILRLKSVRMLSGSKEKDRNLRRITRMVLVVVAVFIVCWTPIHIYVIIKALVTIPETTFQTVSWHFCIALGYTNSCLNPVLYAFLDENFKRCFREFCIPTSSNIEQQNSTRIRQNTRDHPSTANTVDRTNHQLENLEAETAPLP
How it was run: as §1

T1 sequence (P32245 whole entry): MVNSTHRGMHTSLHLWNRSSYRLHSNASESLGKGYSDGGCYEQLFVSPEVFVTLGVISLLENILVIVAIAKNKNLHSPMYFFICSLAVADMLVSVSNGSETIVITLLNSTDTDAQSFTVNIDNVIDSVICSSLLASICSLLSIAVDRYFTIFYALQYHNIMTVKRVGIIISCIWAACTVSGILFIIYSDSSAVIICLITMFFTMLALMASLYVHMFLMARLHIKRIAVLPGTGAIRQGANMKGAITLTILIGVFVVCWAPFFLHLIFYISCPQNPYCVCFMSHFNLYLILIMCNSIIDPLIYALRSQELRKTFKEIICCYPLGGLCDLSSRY

Row | Structure (SMILES) | A4 radioligand binding, percentage inhibition (Human Melanocortin (MC4)) | A10 radioligand binding, percentage inhibition (Human opioid (ORL1)) | A5 radioligand binding, percentage inhibition (Human melanocortin (MC5)) | A1 radioligand binding, percentage inhibition (Human δ-opioid (DOP)) | A11 radioligand binding, percentage inhibition (Mouse urotensin (mUR2)) | A8 radioligand binding, percentage inhibition (Human neurokinin (NK1)) | A9 radioligand binding, percentage inhibition [1] | A3 radioligand binding, percentage inhibition (Human Melanocortin (MC3)) | A6 radioligand binding, percentage inhibition ([2]; [125I]-S36057) | A4: inhibition of radioligand binding (Human Melanocortin (MC4)) | A10: inhibition of radioligand binding (Human opioid (ORL1)) | A5: inhibition of radioligand binding (Human melanocortin (MC5)) | A1: inhibition of radioligand binding (Human δ-opioid (DOP)) | A11: inhibition of radioligand binding (Mouse urotensin (mUR2)) | A8: inhibition of radioligand binding (Human neurokinin (NK1)) | A9: inhibition of radioligand binding [1] | A3: inhibition of radioligand binding (Human Melanocortin (MC3)) | A6: inhibition of radioligand binding [2] | A2: inhibition of radioligand binding (Human κ-Opioid (KOP)) | A7: inhibition of radioligand binding (Human μ-opioid (MOP)) | also measured
1 | CO[C@H]1[C@H](O)[C@@H](COCc2ccc3ccccc3c2)OC(OCc2ccc(Cl)cc2)[C@@H]1NC(=O)CNC(=N)N (stereo partly drawn) [compound 97] | + (“+” indicates greater than 50% inhibition at 10 μM) | + (“+” indicates greater than 50% inhibition at 10 μM) | + (“+” indicates greater than 50% inhibition at 10 μM) | − (“−” indicates less than 50% inhibition at 10 μM) | − (“−” indicates less than 50% inhibition at 10 μM) | + (“+” indicates greater than 50% inhibition at 10 μM) | − (“−” indicates less than 50% inhibition at 10 μM) | + (“+” indicates greater than 50% inhibition at 10 μM) | − (“−” indicates less than 50% inhibition at 10 μM) |  |  |  |  |  |  |  |  |  |  |  | A2 radioligand binding, percentage inhibition (Human κ-Opioid (KOP)): − (“−” indicates less than 50% inhibition at 10 μM); A7 radioligand binding, percentage inhibition (Human μ-opioid (MOP)): − (“−” indicates less than 50% inhibition at 10 μM)
2 | CSC1OC(COCc2ccc(Cl)cc2)C(O)C(OCc2ccccc2)C1NC(=O)CCNC(=N)N (stereo not drawn) [compound 254] |  |  |  |  |  |  |  |  |  | − (“−” indicates less than 50% inhibition at 10 μM) | − (“−” indicates less than 50% inhibition at 10 μM) | − (“−” indicates less than 50% inhibition at 10 μM) | − (“−” indicates less than 50% inhibition at 10 μM) | − (“−” indicates less than 50% inhibition at 10 μM) | + (“+” indicates greater than 50% inhibition at 10 μM) | − (“−” indicates less than 50% inhibition at 10 μM) | − (“−” indicates less than 50% inhibition at 10 μM) | − (“−” indicates less than 50% inhibition at 10 μM) | − (“−” indicates less than 50% inhibition at 10 μM) | − (“−” indicates less than 50% inhibition at 10 μM) | 
3 | NCCC(=O)NC1C(OCc2ccccc2)OC(COCc2ccccc2)C(O)C1OCc1ccc2ccccc2c1 (stereo not drawn) [compound 367] |  |  |  |  |  |  |  |  |  |  |  |  |  |  |  |  |  |  |  |  | A4: inhibition of radioligand binding, human melanocortin (MC4) (Human Melanocortin (MC4)): + (“+” indicates greater than 50% inhibition at 10 μM); A10: inhibition of radioligand binding, human opioid (ORL1) (Human opioid (ORL1)): − (“−” indicates less than 50% inhibition at 10 μM); A5: inhibition of radioligand binding, human melanocortin (MC5) (Human melanocortin (MC5)): + (“+” indicates greater than 50% inhibition at 10 μM); A1: inhibition of radioligand binding, human δ-opioid (DOP) (Human δ-opioid (DOP)): − (“−” indicates less than 50% inhibition at 10 μM); A11: inhibition of radioligand binding, mouse urotensin (mUR2) (Mouse urotensin (mUR2)): − (“−” indicates less than 50% inhibition at 10 μM); A8: inhibition of radioligand binding, human neurokinin (NK1) (Human neurokinin (NK1)): + (“+” indicates greater than 50% inhibition at 10 μM); A9: inhibition of radioligand binding, human neuropeptide Y (NPY-Y1) [1]: − (“−” indicates less than 50% inhibition at 10 μM); A3: inhibition of radioligand binding, human melanocortin (MC3) (Human Melanocortin (MC3)): − (“−” indicates less than 50% inhibition at 10 μM); A6: inhibition of radioligand binding, human melanin-concentrating hormone (MCH1) ([2]; [125I]-S36057): − (“−” indicates less than 50% inhibition at 10 μM); A2: inhibition of radioligand binding, human κ-opioid (KOP) (Human κ-Opioid (KOP)): − (“−” indicates less than 50% inhibition at 10 μM); A7: inhibition of radioligand binding, human μ-opioid (MOP) (Human μ-opioid (MOP)): − (“−” indicates less than 50% inhibition at 10 μM)
4 | COCC1OC(OCc2ccc(Cl)cc2)C(NC(=O)CN)C(OCc2ccc3ccccc3c2)C1O (stereo not drawn) [compound 208] |  |  |  |  |  |  |  |  |  | − (“−” indicates less than 50% inhibition at 10 μM) | − (“−” indicates less than 50% inhibition at 10 μM) | + (“+” indicates greater than 50% inhibition at 10 μM) | − (“−” indicates less than 50% inhibition at 10 μM) | − (“−” indicates less than 50% inhibition at 10 μM) | + (“+” indicates greater than 50% inhibition at 10 μM) | − (“−” indicates less than 50% inhibition at 10 μM) | − (“−” indicates less than 50% inhibition at 10 μM) | − (“−” indicates less than 50% inhibition at 10 μM) | − (“−” indicates less than 50% inhibition at 10 μM) | − (“−” indicates less than 50% inhibition at 10 μM) | 
5 | CO[C@H]1[C@H](O)[C@@H](COCc2ccc3ccccc3c2)OC(OCc2ccc(Cl)cc2)[C@@H]1NC(=O)CCCN (stereo partly drawn) [compound 99] | + (“+” indicates greater than 50% inhibition at 10 μM) | − (“−” indicates less than 50% inhibition at 10 μM) | + (“+” indicates greater than 50% inhibition at 10 μM) | − (“−” indicates less than 50% inhibition at 10 μM) | − (“−” indicates less than 50% inhibition at 10 μM) | + (“+” indicates greater than 50% inhibition at 10 μM) | − (“−” indicates less than 50% inhibition at 10 μM) | − (“−” indicates less than 50% inhibition at 10 μM) | − (“−” indicates less than 50% inhibition at 10 μM) |  |  |  |  |  |  |  |  |  |  |  | A2 radioligand binding, percentage inhibition (Human κ-Opioid (KOP)): − (“−” indicates less than 50% inhibition at 10 μM); A7 radioligand binding, percentage inhibition (Human μ-opioid (MOP)): − (“−” indicates less than 50% inhibition at 10 μM)
6 | CSC1O[C@H](COCc2ccc3ccccc3c2)[C@@H](O)[C@@H](OCc2ccc(Cl)cc2)[C@H]1NC(=O)CCN (stereo partly drawn) [compound 282] |  |  |  |  |  |  |  |  |  | + (“+” indicates greater than 50% inhibition at 10 μM) | − (“−” indicates less than 50% inhibition at 10 μM) | − (“−” indicates less than 50% inhibition at 10 μM) | − (“−” indicates less than 50% inhibition at 10 μM) | − (“−” indicates less than 50% inhibition at 10 μM) | + (“+” indicates greater than 50% inhibition at 10 μM) | − (“−” indicates less than 50% inhibition at 10 μM) | − (“−” indicates less than 50% inhibition at 10 μM) | − (“−” indicates less than 50% inhibition at 10 μM) | − (“−” indicates less than 50% inhibition at 10 μM) | − (“−” indicates less than 50% inhibition at 10 μM) | 
